Source: article PMC7796460, “Relation of Metal-Binding Property and Selective Toxicity of 8-Hydroxyquinoline Derived Mannich Bases Targeting Multidrug Resistant Cancer Cells” (Cancers, 2021)
Read-outs that look alike come from different tables or passages of the source.

Legend:
MES-SA cells [1] = assay: MTT viability assay, MES-SA; format: cell-based, human; conditions: Homo sapiens, MES-SA; Table 2, value outside brackets; read-out: MES-SA (toxicity, Table 2)
Text: (§1) MDCK II canine kidney cells, A431 epidermoid carcinoma cells, the human uterine sarcoma cell lines MES-SA and the doxorubicin selected MES-SA-Dx5 were obtained from ATCC (MDCK II: No. CRL-2936™, A431: No. CRL-1555™, MES-SA: No. CRL-1976™, MES-SA/Dx5: No. CRL-1977™). ABCB1 was expressed in A431 and MES-SA cells using lentiviral transduction. The human cervix carcinoma cell line KB-3-1 and the vinblastine selected KB-v1were kind gifts from Dr. Michael M. Gottesman, National Institutes of Health. The phenotype of the resistant cells was verified using cytotoxicity assays. MDCK-B1 and MDCK-MM were established by the Sleeping Beauty transposon-based gene delivery system. OVCAR-8 and NCI-ADRres cells (obtained from the Division of Cancer Treatment and Diagnosis (DCTD) Tumor Repository (National Cancer Institute, Frederick, MD, USA)) were cultivated in RPMI-1640 (Sigma Aldrich, Budapest, Hungary), and other cell lines were cultivated in Dulbecco’s Modified Eagle Medium (DMEM, Sigma Aldrich, Budapest, Hungary), supplemented with 10% fetal bovine serum, 5 mM glutamine, and 50 unit/mL penicillin and streptomycin (Life Technologies, Carlsbad, CA, USA). All cell lines were cultivated at 37 °C, 5% CO2.
(§2) MTT viability assays were performed as described earlier with minor modifications. Briefly, cells were seeded into 96-well tissue culture plates (Sarstedt, Newton, NC, USA/Orange, Braine-l’Alleud, Belgium) at a density of 5000 cells/well and allowed to attach overnight. Test compounds were added to achieve the required final concentration in a final volume of 100 µL per well. After an incubation period of 72 h, the supernatant was removed and fresh medium containing the MTT reagent (0.083 mg/mL) was added. Incubation with MTT at 37 °C was terminated after 1 h by removing the supernatant and lysing the cells with 100 µL DMSO per well. Viability of the cells was measured spectrophotometrically based on the absorbance values at 540 nm using either a Perkin Elmer Victor X3 or an EnSpire microplate reader. Data were background corrected by subtraction of the signal obtained from unstained cell lysates and normalized to untreated cells. Curves were fitted by Prism software (GraphPad Software Inc., San Diego, CA, USA) using the sigmoidal dose-response model (comparing variable and fixed slopes). […] Significance was calculated using unpaired t-tests; results are given as *: p ≤ 0.05, **: p ≤ 0.01, ***: p ≤ 0.001, ****: p ≤ 0.0001.

MES-SA/Dx5 cells [2] = assay: MTT viability assay, MES-SA/Dx5; format: cell-based, human; conditions: for IC50: Homo sapiens, MES-SA/Dx5, read-out: MES-SA/Dx5 (toxicity, Table 2)
Text: as §1, §2

MES-SA cells [3] = assay: ROS determination with DCFDA, MES-SA; format: cell-based, human; conditions: 2 h
Experimental: (§3) Measurements were performed as described earlier. Briefly, cells were harvested, washed with PBS, and incubated with 10 µM DCFDA in a water bath shaker at 37 °C for 30 min in a density of 3 × 10^6 cells/mL. After washing with PBS, cells were seeded to 96-well plates in PBS in a density of 2 × 10^4 cells/well. Following the measurement of the basal fluorescence, test compounds were added in different concentrations and the fluorescence of the samples was followed at time intervals of 10 min. DCFDA solution in buffer was used as a cell free control to test for interaction of the test compounds with DCFDA. Data were analyzed as fold change of fluorescence compared to basal levels and untreated cells. Significance was calculated using unpaired t-tests; results are given as *: p ≤ 0.05, **: p ≤ 0.01, ***: p ≤ 0.001, ****: p ≤ 0.0001.
(§4) Table S3: Characterization of intracellular ROS production with the DCFDA assay for P -gp negative MES-SA and P-gp positive MES-SA/Dx5 cells. Fold changes in fluorescence are shown after a 2 h with the investigated 8 -hydroxyquinoline ligands. Data S-refer to Figure 7 and allow […]
(§5) concentration range from 6.25µ M to 50µ M. Fold change of fluorescence obtained in the presence of 5 mM NAC is given in brackets.

MES-SA/Dx5 cells [4] = assay: ROS determination with DCFDA, MES-SA/Dx5; format: cell-based, human; conditions: 2 h
Experimental: as §3, §4, §5

[5] = pKa by UV-visible spectrophotometric titrations; format: physicochemical; conditions: 0.2 M KCl (ionic strength), T = 25 °C, I = 0.2 M (KCl)
[6] = Table 2, value outside brackets
[7] = Table 2, value in brackets (Tariquidar as in Table 1)
[8] = 6.25 µM, presence of 5 mM NAC (brackets)
[9] = 12.5 µM, presence of 5 mM NAC (brackets)
[10] = 25 µM, presence of 5 mM NAC (brackets)
[11] = 50 µM, presence of 5 mM NAC (brackets)
[12] = MES-SA/Dx5, 6.25 µM, presence of 5 mM NAC (brackets)
[13] = MES-SA/Dx5, 12.5 µM, presence of 5 mM NAC (brackets)
[14] = MES-SA/Dx5, 25 µM, presence of 5 mM NAC (brackets)
[15] = MES-SA/Dx5, 50 µM, presence of 5 mM NAC (brackets)
[16] = group named in the cell (NmorpholiniumH+, NpiperidiniumH+, NbenzylamineH2+), read-out: pKa (additional)

Row | pKa [5, 16] | SMILES | IC50 (MES-SA cells [1]) [nM] | IC50 (MES-SA/Dx5 cells [2]; [6]) [nM] | SR MES-SA/Dx5 (Table 2) (MES-SA/Dx5 cells [2]; [7]) | SR MES-SA/Dx5 (Table 2) (MES-SA/Dx5 cells [2]; [6]) | Fold change in fluorescence (DCFDA) (MES-SA cells [3]; 6.25 µM) | Fold change in fluorescence (DCFDA) (MES-SA cells [3]; [8]) | Fold change in fluorescence (DCFDA) (MES-SA cells [3]; 12.5 µM) | Fold change in fluorescence (DCFDA) (MES-SA cells [3]; [9]) | Fold change in fluorescence (DCFDA) (MES-SA cells [3]; 25 µM) | Fold change in fluorescence (DCFDA) (MES-SA cells [3]; [10]) | Fold change in fluorescence (DCFDA) (MES-SA cells [3]; 50 µM) | Fold change in fluorescence (DCFDA) (MES-SA cells [3]; [11]) | Fold change in fluorescence (DCFDA) (MES-SA/Dx5 cells [4]; MES-SA/Dx5, 6.25 µM) | Fold change in fluorescence (DCFDA) (MES-SA/Dx5 cells [4]; [12]) | Fold change in fluorescence (DCFDA) (MES-SA/Dx5 cells [4]; MES-SA/Dx5, 12.5 µM) | Fold change in fluorescence (DCFDA) (MES-SA/Dx5 cells [4]; [13]) | Fold change in fluorescence (DCFDA) (MES-SA/Dx5 cells [4]; [14]) | Fold change in fluorescence (DCFDA) (MES-SA/Dx5 cells [4]; MES-SA/Dx5, 50 µM) | Fold change in fluorescence (DCFDA) (MES-SA/Dx5 cells [4]; [15]) | other results
1 | 5.83 ± 0.02 | Oc1c(CN2CCOCC2)cc(Cl)c2cccnc12 [Compound 5-Cl-Q-2] | 1400 ± 240 | 640 ± 30 | 1.39 | 2.19 | 1.896± 0.32 | 1.600± 0.55 | 2.226± 0.39 | 1.263± 0.62 | 2.086± 0.66 | 1.309± 0.51 | 2.609± 0.77 | 1.178± 0.40 | 2.594± 0.87 | 1.246± 0.47 | 3.214± 0.86 | 1.651± 0.73 | 1.265± 0.27 | 4.697± 3.24 | 1.462± 0.39 | pKa ([5]; read-out: pKa (NquinoliniumH+)): < 2; pKa ([5]; read-out: pKa (OH)): 9.68 ± 0.03
2 | 7.16 ± 0.03 | Oc1c(CN2CCCCC2)cc(Cl)c2cccnc12 [Compound 5-Cl-Q-3] | 1300 ± 210 | 150 ± 10 | 1.61 | 8.40 | 1.672± 0.27 | 1.307± 0.51 | 1.861± 0.40 | 1.542± 0.35 | 1.812± 0.27 | 1.382± 0.67 | 2.075± 0.68 | 1.155± 0.25 | 1.975± 0.50 | 1.024± 0.19 | 1.954± 0.42 | 0.954± 0.14 | 1.005± 0.21 | 3.077± 1.29 | 1.086± 0.14 | Fold change in fluorescence (DCFDA) (MES-SA/Dx5 cells [4]; MES-SA/Dx5, 25 µM): 2.714± 0.84; pKa ([5]; read-out: pKa (NquinoliniumH+)): 1.61 ± 0.04; pKa ([5]; read-out: pKa (OH)): 4.85 ± 0.02
